Assay results: patent publication US20230028441A1, “NOVEL HETEROARYL-TRIAZOLE COMPOUNDS AS PESTICIDES” (Bayer Aktiengesellschaft, priority 2019, published 2023)

Columns and labels:
Assay type in all cases: in vivo
[1] = tested on: larvae of the southern green stink bug (Nezara viridula); experiment: Nezara viridula spray test; conditions: in Hordeum vulgare, 96 h
Procedure, shortened: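 Barley plants infested with Nezara viridula larvae were sprayed with compound in acetone/dimethylformamide, diluted in water containing 1000 ppm alkylarylpolyglycol ether emulsifier. Mortality (%) was scored after 4 days; 100% means all stink bugs killed.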

[2] = tested on: brown planthopper (Nilaparvata lugens); experiment: Nilaparvata lugens spray test; conditions: in Oryza sativa, 96 h
Experimental: Solvent: 78.0 parts by weight of acetone • • 1.5 parts by weight of dimethylformamide
Emulsifier: alkylarylpolyglycol ether
To produce a suitable preparation of active compound, 1 part by weight of active compound is mixed with the stated amount of solvents and is diluted with water, containing an emulsifier concentration of 1000 ppm, to the desired concentration. Further test concentrations are prepared by dilution with emulsifier containing water.
Rice plants (Oryza sativa) are sprayed with a preparation of the active ingredient of the desired concentration and the plants are infested with the brown planthopper (Nilaparvata lugens).
After 4 days mortality in % is determined. 100% means all planthoppers have been killed and 0% means none of the planthoppers have been killed.

[3] = tested on: fall armyworm larvae (Spodoptera frugiperda); experiment: Spodoptera frugiperda spray test (maize leaf sections); conditions: 168 h
Procedure, shortened: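 Maize leaf sections were sprayed with compound formulated in acetone/DMF and diluted in water containing 1000 ppm emulsifier. Once dry, sections were infested with fall armyworm larvae. Mortality (%) was scored after 7 days.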

[4] = tested on: larvae of the banded cucumber beetle (Diabrotica balteata); experiment: Diabrotica balteata spray test; conditions: 168 h, 100 g/ha (=32 μg/well), after 7 days, wheat seeds, read-out: efficacy (seedlings grown up)
Procedure, shortened: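 Germinated wheat seedlings (5 per well, agar plates) sprayed with compound in acetone/DMF diluted in water with 1000 ppm emulsifier, then infested with 10-20 larvae per unit. Efficacy scored after 7 days as % seedling growth relative to untreated, uninfested control (100% = normal growth, 0% = none).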

[5] = tested on: green peach aphid (Myzus persicae); experiment: Myzus persicae oral test; conditions: 120 h
Experimental: Solvent: 100 parts by weight acetone
To produce a suitable preparation of active compound, 1 part by weight of active compound is mixed with the stated amount of solvent, and the concentrate is diluted with water to the desired concentration.
50 μL compound solution is filled in microtiter plates and 150 μL IPL41 insect medium (33%+15% sugar) is added to obtain a total volume of 200 μL per well. Afterwards the plates are sealed with parafilm through which a mixed population of the green peach aphid (Myzus persicae) can suck on the compound preparation.
After 5 days mortality in % is determined. 100% means all aphids have been killed and 0% means none of the aphids have been killed.

[6] = tested on: adult engorged female ticks (Rhipicephalus microplus); experiment: Rhipicephalus (Boophilus) microplus injection test; conditions: 168 h, egg deposition after 7 days, read-out: efficacy (infertile eggs); for pest or weed control at 0.004 mg: 4 μg/animal; for pest or weed control at 0.02 mg: 20 μg/animal
Procedure, shortened: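 Compound was dissolved in DMSO at 10 mg per 0.5 mL and diluted with DMSO to the test concentration. Five engorged adult females received a 1 μL abdominal injection and were kept in a climate chamber. After 7 days, fertile egg deposition was scored, with unclear eggs held until hatching at about 42 days; 100% efficacy means all eggs were infertile.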

[7] = tested on: adult unfed cat fleas (Ctenocephalides felis); experiment: Ctenocephalides felis oral test; conditions: 48 h, 100 ppm in cattle blood, after 2 days
Experimental: Solvent: dimethyl sulfoxide
To produce a suitable preparation of active compound, 10 mg of active compound are dissolved in 0.5 mL solvent, and the concentrate is diluted with cattle blood to the desired concentration.
Approximately 20 adult unfed cat fleas (Ctenocephalides felis) are placed in flea chambers. The blood chamber, sealed with parafilm on the bottom, are filled with cattle blood supplied with compound solution and placed on the gauze covered top of the flea chamber, so that the fleas are able to suck the blood. The blood chamber is heated to 37° C. whereas the flea chamber is kept at room temperature.
After 2 days mortality in % is determined. 100% means all the fleas have been killed; 0% means none of the fleas have been killed.

[8] = tested on: cattle tick larvae (Rhipicephalus microplus), strain Parkhurst, resistant against synthetic pyrethroids; experiment: Rhipicephalus (Boophilus) microplus in-vitro contact test, larval cattle tick; conditions: 5 μg/cm^2 (=500 g/ha), after 48 hours, read-out: efficacy (larvae dead or moribund)
Experimental: (§1) 9 mg compound is solved in 1 mL acetone and diluted with acetone to the desired concentration. 250 μL of the test solution is filled in 25 mL glass test tubes and homogeneously distributed on the inner walls by rotation and tilting on a shaking device (2 h at 30 rpm). With a compound concentration of 900 ppm, an inner surface of 44.7 cm^2 and a homogeneous distribution, a dose of 5 μg/cm^2 is achieved.
After the solvent has evaporated, each test tube is filled with 20-50 cattle tick larvae (Rhipicephalus microplus), closed with a perforated lid and incubated in a horizontal position at 85% relative humidity and 27° C. in an incubator. After 48 hours efficacy is determined. The larvae are patted on the ground of the tubes and negative geotactic behaviour is recorded.
An efficacy of 100% means all larvae are dead or moribund; 0% means no larvae are dead or moribund.

[9] = tested on: adult brown dog ticks (Rhipicephalus sanguineus); experiment: Rhipicephalus sanguineus in-vitro contact test with adult brown dog ticks; conditions: after 48 hours, read-out: efficacy (ticks dead or moribund)
Experimental: as §1
After the solvent has evaporated, each test tube is filled with 5-10 adult brown dog ticks (Rhipicephalus sanguineus), closed with a perforated lid and incubated in a lying position at room temperature and relative humidity. After 48 hours efficacy is determined. The ticks are patted on the ground of the tubes and are incubated on a heating plate at 45-50° C. for at most 5 minutes. Immotile or uncoordinated moving ticks, which are not able to escape the heat by climbing upwards, are marked as dead or moribund.
An efficacy of 100% means all ticks are dead or moribund; 0% means no ticks are dead or moribund.

SMILES | mortality at 500 g/ha [1] | mortality at 500 g/ha [2] | mortality at 100 g/ha [3] | pest or weed control at 32 µg/disc, 100 g/ha [4] | other results
C[C@H](NC(=O)c1cc(C(F)(F)F)cc(S(C)(=O)=O)c1)c1nc(N)nn1-c1ncccn1 [I-211] | 100% | 100% |  |  | 
CCS(=O)(=O)c1cc(C(=O)N[C@@H](C)c2nc(N)nn2-c2ncccn2)cc(C(F)(F)F)c1 [I-189] | 100% | 100% |  |  | 
C[C@H](NC(=O)c1cc(C(F)(F)F)cc(C(F)(F)F)c1)c1nc(N2CCOCC2)nn1-c1ccc(C#N)cn1 [I-175] |  | 100% | 100% | 100% | 
CNc1nc([C@H](C)NC(=O)c2cc(C3CC3)cc(S(=O)(=O)C(F)(F)F)c2)n(-c2ncccn2)n1 [I-183] | 100% | 100% | 100% | 100% | 
CC(NC(=O)c1cc(Cl)cc(S(C)(=O)=O)c1)c1nc(N2CCOCC2)nn1-c1ccc(C#N)cn1 (stereo not shown) [I-160] |  | 100% |  |  | 
C[C@H](NC(=O)c1cc(OC(F)(F)F)cc(S(C)(=O)=O)c1)c1nc(N)nn1-c1ncccn1 [I-188] | 100% | 100% |  |  | 
CNC(=O)c1nc(C(C)NC(=O)c2cc(Cl)cc(C(F)(F)F)c2)n(-c2ccc(C#N)cn2)n1 (stereo not shown) [I-079] |  |  | 100% |  | mortality at 4 ppm [5]: 100%; pest or weed control at 0.004 mg [6]: 100%; pest or weed control at 0.02 mg [6]: 100%; mortality at 100 ppm [7]: 100%; pest or weed control at 5 µg/cm2 [8]: 100%
CON(C)c1nc([C@H](C)NC(=O)c2cc(Br)cc(OC(F)(F)F)c2)n(-c2ncccn2)n1 [I-151] | 100% | 100% | 100% | 100% | 
CNc1nc([C@H](C)NC(=O)c2cc(OC(F)(F)F)cc(S(=O)(=O)c3ccc(Cl)cc3)c2)n(-c2ncccn2)n1 [I-182] |  | 100% | 100% | 100% | 
CNc1nc([C@H](C)NC(=O)c2cc(OC(F)(F)F)cc(S(C)(=O)=O)c2)n(-c2ncccn2)n1 [I-185] | 100% | 100% |  | 100% | 
CNc1nc([C@H](C)NC(=O)c2cc(C(F)(F)F)cc(C(F)(F)F)c2)n(-c2ccc(C#N)cn2)n1 [I-168] | 100% | 100% | 100% | 100% | 
CCS(=O)(=O)c1cc(OC(F)(F)F)cc(C(=O)N[C@@H](C)c2nc(NC)nn2-c2ncccn2)c1 [I-180] | 100% | 100% | 100% | 100% | 
CC(NC(=O)c1cc(Cl)cc(S(C)(=O)=O)c1)c1nc(-c2cnccn2)nn1-c1ncccn1 (stereo not shown) [I-045] |  |  |  |  | pest or weed control at 5 µg/cm2, 500 g/ha ([9]; 5 μg/cm^2 (=500 g/ha)): 80%; mortality at 4 ppm [5]: 90%; pest or weed control at 0.004 mg [6]: 100%; pest or weed control at 0.02 mg [6]: 100%; mortality at 100 ppm [7]: 100%
CC(NC(=O)c1cc(Cl)cc(S(C)(=O)=O)c1)c1nc(CS(C)(=O)=O)nn1-c1ccc(Cl)cn1 (stereo not shown) [I-027, 3-chloro-N-[1-[2-(5-chloro-2-pyridyl)-5-(methylsulfonylmethyl)-1,2,4-triazol-3-yl]ethyl]-5-methylsulfonyl-benzamide] | 100% |  |  |  | mortality at 100 g/ha [1]: 100%; mortality at 4 ppm [5]: 100%; pest or weed control at 0.004 mg [6]: 80%; pest or weed control at 0.02 mg [6]: 100%; mortality at 100 ppm [7]: 100%; pest or weed control at 5 µg/cm2 [8]: 90%
C[C@H](NC(=O)c1cc(C(F)(F)F)cc(C(F)(F)F)c1)c1nc(N(C)C)nn1-c1ncc(Cl)cn1 [I-176] | 100% | 100% | 100% | 100% | 
CC(NC(=O)c1cc(Br)cc(C(F)(F)F)c1)c1nc(N)nn1-c1ncccn1 (stereo not shown) [I-093] |  |  | 83% |  | pest or weed control at 1 µg/cm2, 100 g/ha ([9]; 1 μg/cm^2 (=100 g/ha)): 80%; mortality at 4 ppm [5]: 100%; pest or weed control at 0.004 mg [6]: 100%; mortality at 100 ppm [7]: 90%; pest or weed control at 5 µg/cm2 [8]: 100%
C[C@H](NC(=O)c1cc(Cl)cc(S(C)(=O)=O)c1)c1nc(N)nn1-c1ncccn1 [I-169] | 100% | 100% |  |  | 
CC(NC(=O)c1cc(Cl)cc(C(F)(F)F)c1)c1nc(C(N)=O)nn1-c1ncccn1 (single isomer, unassigned) [I-074, 5-[1-[[3-chloro-5-(trifluoromethyl)benzoyl]amino]ethyl]-1-pyrimidin-2-yl-1,2,4-triazole-3-carboxamide] |  |  |  |  | mortality at 100 g/ha [1]: 100%; mortality at 4 ppm [5]: 100%; pest or weed control at 0.004 mg [6]: 100%; mortality at 100 ppm [7]: 100%
CC(=O)Nc1nc(C(C)NC(=O)c2cc(Cl)cc(S(C)(=O)=O)c2)n(-c2ccc(Cl)cn2)n1 (stereo not shown) [I-017] | 100% |  |  |  | mortality at 100 g/ha [1]: 90%; mortality at 4 ppm [5]: 100%; pest or weed control at 0.004 mg [6]: 100%; pest or weed control at 0.02 mg [6]: 100%; mortality at 500 g/ha [3]: 100%; mortality at 100 ppm [7]: 100%
CNc1nc([C@H](C)NC(=O)c2cc(OC(F)(F)F)cc(S(=O)(=O)C(C)C)c2)n(-c2ncccn2)n1 [I-181] |  | 100% |  |  | 
C[C@H](NC(=O)c1cc(OC(F)(F)F)cc(C2CC2)c1)c1nc(N2CCOCC2)nn1-c1ccc(C#N)cn1 [I-174] |  | 100% |  | 100% | 
